Measured values reported in PubChem BioAssay (NCI).
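Following 48 hours of exposure in 96-well plates, responses at five concentrations were used to interpolate endpoints linearly. GI50 marks 50% less growth. The concentration for full growth arrest is given as TGI.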

How the values were obtained:
Assay in all cases: NCI-60 cell line screen, 48 h
RXF 393 renal = system: RXF 393 renal
TK-10 renal = system: TK-10 renal
BT-549 breast = system: BT-549 breast
MDA-MB-231 breast = system: MDA-MB-231 breast
A498 renal = system: A498 renal
SNB-75 CNS = system: SNB-75 CNS
MDA-MB-435 = system: MDA-MB-435
M14 melanoma = system: M14 melanoma
DU-145 prostate = system: DU-145 prostate
NCI/ADR-RES ovarian = system: NCI/ADR-RES ovarian
NCI-H522 lung = system: NCI-H522 lung
UO-31 renal = system: UO-31 renal
PC-3 prostate = system: PC-3 prostate
HCT-15 colon = system: HCT-15 colon
KM12 colon = system: KM12 colon
SR leukemia = system: SR leukemia
MOLT-4 leukemia = system: MOLT-4 leukemia
SK-MEL-28 melanoma = system: SK-MEL-28 melanoma
NCI-H23 lung = system: NCI-H23 lung
HOP-62 NSCLC = system: HOP-62 NSCLC
HCT-116 colon = system: HCT-116 colon
HL-60(TB) leukemia = system: HL-60(TB) leukemia
SN12C renal = system: SN12C renal
CCRF-CEM leukemia = system: CCRF-CEM leukemia
IGROV1 ovarian = system: IGROV1 ovarian
HT29 colon = system: HT29 colon
OVCAR-8 ovarian = system: OVCAR-8 ovarian
K-562 leukemia = system: K-562 leukemia
SF-268 CNS = system: SF-268 CNS
MALME-3M melanoma = system: MALME-3M melanoma
SNB-19 CNS = system: SNB-19 CNS
SF-295 CNS = system: SF-295 CNS
A549 NSCLC = system: A549 NSCLC
U251 CNS = system: U251 CNS
HCC-2998 colon = system: HCC-2998 colon
LOX IMVI melanoma = system: LOX IMVI melanoma
SF-539 CNS = system: SF-539 CNS
T-47D breast = system: T-47D breast
786-0 renal = system: 786-0 renal
OVCAR-5 ovarian = system: OVCAR-5 ovarian
MCF7 breast = system: MCF7 breast
NCI-H460 lung = system: NCI-H460 lung
OVCAR-3 ovarian = system: OVCAR-3 ovarian
ACHN renal = system: ACHN renal
NCI-H226 lung = system: NCI-H226 lung
RPMI-8226 leukemia = system: RPMI-8226 leukemia
OVCAR-4 ovarian = system: OVCAR-4 ovarian
COLO 205 colon = system: COLO 205 colon
SK-OV-3 ovarian = system: SK-OV-3 ovarian
SK-MEL-5 melanoma = system: SK-MEL-5 melanoma
HOP-92 NSCLC = system: HOP-92 NSCLC
SK-MEL-2 melanoma = system: SK-MEL-2 melanoma
EKVX NSCLC = system: EKVX NSCLC
SW-620 colon = system: SW-620 colon
CAKI-1 renal = system: CAKI-1 renal
HS 578T breast = system: HS 578T breast
UACC-62 melanoma = system: UACC-62 melanoma
UACC-257 melanoma = system: UACC-257 melanoma

SMILES: COc1cc(-c2nc3ccccc3s2)ccc1NC(=O)COc1ccc(Cl)cc1
- GI50 (RXF 393 renal): 3.25 µM
- TGI (RXF 393 renal): 11.3 µM
- GI50 (TK-10 renal): 2.68 µM
- TGI (TK-10 renal): 7.06 µM
- GI50 (BT-549 breast): > 100 µM
- TGI (BT-549 breast): > 100 µM
- GI50 (MDA-MB-231 breast): 4.98 µM
- TGI (MDA-MB-231 breast): > 100 µM
- GI50 (A498 renal): 44.5 µM
- TGI (A498 renal): > 100 µM
- GI50 (SNB-75 CNS): 42.9 µM
- TGI (SNB-75 CNS): > 100 µM
- GI50 (MDA-MB-435): 8.16 µM
- TGI (MDA-MB-435): > 100 µM
- GI50 (M14 melanoma): 8.54 µM
- TGI (M14 melanoma): > 100 µM
- GI50 (DU-145 prostate): 8.28 µM
- TGI (DU-145 prostate): > 100 µM
- GI50 (NCI/ADR-RES ovarian): 3.22 µM
- TGI (NCI/ADR-RES ovarian): 27.6 µM
- GI50 (NCI-H522 lung): 2.71 µM
- TGI (NCI-H522 lung): 12.1 µM
- GI50 (UO-31 renal): 1.49 µM
- TGI (UO-31 renal): > 100 µM
- GI50 (PC-3 prostate): 3.51 µM
- TGI (PC-3 prostate): > 100 µM
- GI50 (HCT-15 colon): > 100 µM
- TGI (HCT-15 colon): > 100 µM
- GI50 (KM12 colon): 3.91 µM
- TGI (KM12 colon): > 100 µM
- GI50 (SR leukemia): 76.5 µM
- TGI (SR leukemia): > 100 µM
- GI50 (MOLT-4 leukemia): > 100 µM
- TGI (MOLT-4 leukemia): > 100 µM
- GI50 (SK-MEL-28 melanoma): 6.33 µM
- TGI (SK-MEL-28 melanoma): 71.3 µM
- GI50 (NCI-H23 lung): 3.01 µM
- TGI (NCI-H23 lung): 25.6 µM
- GI50 (HOP-62 NSCLC): 4.15 µM
- TGI (HOP-62 NSCLC): 34.3 µM
- GI50 (HCT-116 colon): 4.41 µM
- TGI (HCT-116 colon): > 100 µM
- GI50 (HL-60(TB) leukemia): > 100 µM
- TGI (HL-60(TB) leukemia): > 100 µM
- GI50 (SN12C renal): 5.29 µM
- TGI (SN12C renal): > 100 µM
- GI50 (CCRF-CEM leukemia): > 100 µM
- TGI (CCRF-CEM leukemia): > 100 µM
- GI50 (IGROV1 ovarian): 1.14 µM
- TGI (IGROV1 ovarian): 21.2 µM
- GI50 (HT29 colon): 3.66 µM
- TGI (HT29 colon): > 100 µM
- GI50 (OVCAR-8 ovarian): 2.79 µM
- TGI (OVCAR-8 ovarian): 46.6 µM
- GI50 (K-562 leukemia): 5.35 µM
- TGI (K-562 leukemia): > 100 µM
- GI50 (SF-268 CNS): 3.02 µM
- TGI (SF-268 CNS): 50.4 µM
- GI50 (MALME-3M melanoma): 5.07 µM
- TGI (MALME-3M melanoma): > 100 µM
- GI50 (SNB-19 CNS): 3.71 µM
- TGI (SNB-19 CNS): 19.4 µM
- GI50 (SF-295 CNS): 3.35 µM
- TGI (SF-295 CNS): 25.1 µM
- GI50 (A549 NSCLC): 3.07 µM
- TGI (A549 NSCLC): > 100 µM
- GI50 (U251 CNS): 2.23 µM
- TGI (U251 CNS): 6.8 µM
- GI50 (HCC-2998 colon): 18.6 µM
- TGI (HCC-2998 colon): > 100 µM
- GI50 (LOX IMVI melanoma): 4.69 µM
- TGI (LOX IMVI melanoma): > 100 µM
- GI50 (SF-539 CNS): 61.6 µM
- TGI (SF-539 CNS): > 100 µM
- GI50 (T-47D breast): 4.42 µM
- TGI (T-47D breast): > 100 µM
- GI50 (786-0 renal): 1.96 µM
- TGI (786-0 renal): 4 µM
- GI50 (OVCAR-5 ovarian): 13.4 µM
- TGI (OVCAR-5 ovarian): > 100 µM
- GI50 (MCF7 breast): 5.05 µM
- TGI (MCF7 breast): > 100 µM
- GI50 (NCI-H460 lung): 2.99 µM
- TGI (NCI-H460 lung): > 100 µM
- GI50 (OVCAR-3 ovarian): 6.8 µM
- TGI (OVCAR-3 ovarian): > 100 µM
- GI50 (ACHN renal): 4.92 µM
- TGI (ACHN renal): > 100 µM
- GI50 (NCI-H226 lung): 4.31 µM
- TGI (NCI-H226 lung): 59.2 µM
- GI50 (RPMI-8226 leukemia): 11.8 µM
- TGI (RPMI-8226 leukemia): > 100 µM
- GI50 (OVCAR-4 ovarian): 3.9 µM
- TGI (OVCAR-4 ovarian): 93.2 µM
- GI50 (COLO 205 colon): 6.45 µM
- TGI (COLO 205 colon): > 100 µM
- GI50 (SK-OV-3 ovarian): 36.5 µM
- TGI (SK-OV-3 ovarian): > 100 µM
- GI50 (SK-MEL-5 melanoma): 8.68 µM
- TGI (SK-MEL-5 melanoma): > 100 µM
- GI50 (HOP-92 NSCLC): 1.66 µM
- TGI (HOP-92 NSCLC): 4.99 µM
- GI50 (SK-MEL-2 melanoma): 3.52 µM
- TGI (SK-MEL-2 melanoma): 15.3 µM
- GI50 (EKVX NSCLC): 8.67 µM
- TGI (EKVX NSCLC): > 100 µM
- GI50 (SW-620 colon): 53.7 µM
- TGI (SW-620 colon): > 100 µM
- GI50 (CAKI-1 renal): 6.95 µM
- TGI (CAKI-1 renal): > 100 µM
- GI50 (HS 578T breast): 3.73 µM
- TGI (HS 578T breast): > 100 µM
- GI50 (UACC-62 melanoma): 2.74 µM
- TGI (UACC-62 melanoma): 13 µM
- GI50 (UACC-257 melanoma): 13.5 µM
- TGI (UACC-257 melanoma): > 100 µM
